Measurements as given in ChEMBL document CHEMBL5335843, “Application of tobramycin benzyl ether as an antibiotic adjuvant capable of sensitizing multidrug-resistant Gram-negative bacteria to rifampicin” (2024).

What was measured:
Escherichia coli [1] = test: Antibacterial activity against Escherichia coli ATCC 25922 assessed as inhibition of bacterial growth incubated for 18 hrs by two fold broth microdilution assay; assay type: functional
Pseudomonas aeruginosa [2] = test: Antibacterial activity against multi-drug resistant Pseudomonas aeruginosa clinical isolate PA259 assessed as inhibition of bacterial growth incubated for 18 hrs by two fold broth microdilution assay; assay type: functional
Escherichia coli [3] = test: Antibacterial activity against multi-drug resistant Escherichia coli clinical isolate 107115 assessed as inhibition of bacterial growth incubated for 18 hrs by two fold broth microdilution assay; assay type: functional
Acinetobacter baumannii [4] = test: Antibacterial activity against multi-drug resistant Acinetobacter baumannii clinical isolate AB031 assessed as inhibition of bacterial growth incubated for 18 hrs by two fold broth microdilution assay; assay type: functional
Pseudomonas aeruginosa [5] = test: Antibiotic adjuvant activity against multi-drug resistant Pseudomonas aeruginosa clinical isolate 101243 assessed as rifampicin MIC incubated for 18 hrs in presence of Rifampicin by two fold broth microdilution checkerboard assay; assay type: functional
Escherichia coli [6] = test: Antibiotic adjuvant activity against multi-drug resistant Escherichia coli clinical isolate 107115 assessed as rifampicin MIC incubated for 18 hrs in presence of Rifampicin by two fold broth microdilution checkerboard assay; assay type: functional
Acinetobacter baumannii [7] = test: Antibiotic adjuvant activity against multi-drug resistant Acinetobacter baumannii clinical isolate AB027 assessed as rifampicin MIC incubated for 18 hrs in presence of Rifampicin by two fold broth microdilution checkerboard assay; assay type: functional
Acinetobacter baumannii [8] = test: Antibiotic adjuvant activity against multi-drug resistant Acinetobacter baumannii clinical isolate 92247 assessed as rifampicin MIC incubated for 18 hrs in presence of Rifampicin by two fold broth microdilution checkerboard assay; assay type: functional
Acinetobacter baumannii [9] = test: Antibiotic adjuvant activity against multi-drug resistant Acinetobacter baumannii clinical isolate LAC-4 assessed as rifampicin MIC incubated for 18 hrs in presence of Rifampicin by two fold broth microdilution checkerboard assay; assay type: functional
Acinetobacter baumannii [10] = test: Antibiotic adjuvant activity against multi-drug resistant Acinetobacter baumannii clinical isolate 92247 assessed as inhibition of bacterial growth incubated for 18 hrs in presence of Rifampicin by two fold broth microdilution checkerboard assay; assay type: functional
Pseudomonas aeruginosa [11] = test: Antibiotic adjuvant activity against multi-drug resistant Pseudomonas aeruginosa clinical isolate PA262 assessed as fold potentiation incubated for 18 hrs in presence of Rifampicin by two fold broth microdilution checkerboard assay; assay type: functional
Pseudomonas aeruginosa [12] = test: Antibiotic adjuvant activity against multi-drug resistant Pseudomonas aeruginosa clinical isolate 101243 assessed as fractional inhibitory concentration index incubated for 18 hrs in presence of Rifampicin by two fold broth microdilution checkerboard assay; assay type: functional
Pseudomonas aeruginosa [13] = test: Antibiotic adjuvant activity against multi-drug resistant Pseudomonas aeruginosa clinical isolate PA259 assessed as fractional inhibitory concentration index incubated for 18 hrs in presence of Rifampicin by two fold broth microdilution checkerboard assay; assay type: functional
Acinetobacter baumannii [14] = test: Antibiotic adjuvant activity against multi-drug resistant Acinetobacter baumannii clinical isolate AB031 assessed as fractional inhibitory concentration index incubated for 18 hrs in presence of Rifampicin by two fold broth microdilution checkerboard assay; assay type: functional
Acinetobacter baumannii [15] = test: Antibiotic adjuvant activity against multi-drug resistant Acinetobacter baumannii clinical isolate 110193 assessed as fractional inhibitory concentration index incubated for 18 hrs in presence of Rifampicin by two fold broth microdilution checkerboard assay; assay type: functional
Pseudomonas aeruginosa [16] = test: Antibiotic adjuvant activity against multi-drug resistant Pseudomonas aeruginosa clinical isolate PA114228 assessed as minocycline MIC incubated for 18 hrs in presence of minocycline by two fold broth microdilution checkerboard assay; assay type: functional
Pseudomonas aeruginosa [17] = test: Antibiotic adjuvant activity against multi-drug resistant Pseudomonas aeruginosa clinical isolate PA259 assessed as minocycline MIC incubated for 18 hrs in presence of minocycline by two fold broth microdilution checkerboard assay; assay type: functional
Pseudomonas aeruginosa [18] = test: Antibiotic adjuvant activity against multi-drug resistant Pseudomonas aeruginosa clinical isolate PA101243 assessed as inhibition of bacterial growth incubated for 18 hrs in presence of minocycline by two fold broth microdilution checkerboard assay; assay type: functional
Pseudomonas aeruginosa [19] = test: Antibiotic adjuvant activity against multi-drug resistant Pseudomonas aeruginosa clinical isolate PA262 assessed as inhibition of bacterial growth incubated for 18 hrs in presence of minocycline by two fold broth microdilution checkerboard assay; assay type: functional
Pseudomonas aeruginosa [20] = test: Antibiotic adjuvant activity against multi-drug resistant Pseudomonas aeruginosa clinical isolate PA264 assessed as inhibition of bacterial growth incubated for 18 hrs in presence of minocycline by two fold broth microdilution checkerboard assay; assay type: functional
Pseudomonas aeruginosa [21] = test: Antibiotic adjuvant activity against multi-drug resistant Pseudomonas aeruginosa clinical isolate PA114228 assessed as fold potentiation incubated for 18 hrs in presence of minocycline by two fold broth microdilution checkerboard assay; assay type: functional
Pseudomonas aeruginosa [22] = test: Antibiotic adjuvant activity against multi-drug resistant Pseudomonas aeruginosa clinical isolate PA259 assessed as fractional inhibitory concentration index incubated for 18 hrs in presence of minocycline by two fold broth microdilution checkerboard assay; assay type: functional
Escherichia coli [23] = test: Antibiotic adjuvant activity against multi-drug resistant Escherichia coli clinical isolate EC107115 assessed as fractional inhibitory concentration index incubated for 18 hrs in presence of minocycline by two fold broth microdilution checkerboard assay; assay type: functional
Pseudomonas aeruginosa [24] = test: Antibiotic adjuvant activity against multi-drug resistant Pseudomonas aeruginosa clinical isolate PA114228 assessed as doxycycline MIC incubated for 18 hrs in presence of doxycycline by two fold broth microdilution checkerboard assay; assay type: functional
Escherichia coli [25] = test: Antibiotic adjuvant activity against multi-drug resistant Escherichia coli clinical isolate EC94474 assessed as doxycycline MIC incubated for 18 hrs in presence of doxycycline by two fold broth microdilution checkerboard assay; assay type: functional
Pseudomonas aeruginosa [26] = test: Antibiotic adjuvant activity against multi-drug resistant Pseudomonas aeruginosa clinical isolate PA114228 assessed as fold potentiation incubated for 18 hrs in presence of doxycycline by two fold broth microdilution checkerboard assay; assay type: functional
Pseudomonas aeruginosa [27] = test: Antibiotic adjuvant activity against multi-drug resistant Pseudomonas aeruginosa clinical isolate PA259 assessed as fold potentiation incubated for 18 hrs in presence of doxycycline by two fold broth microdilution checkerboard assay; assay type: functional
Staphylococcus aureus [28] = test: Antibiotic adjuvant activity against methicilin-resistant Staphylococcus aureus assessed as rifampicin MIC incubated for 18 hrs in presence of rifampicin by two fold broth microdilution checkerboard assay; assay type: functional
Enterococcus faecium [29] = test: Antibiotic adjuvant activity against Enterococcus faecium 128149 assessed as inhibition of bacterial growth incubated for 18 hrs in presence of rifampicin by two fold broth microdilution checkerboard assay; assay type: functional
Staphylococcus aureus [30] = test: Antibiotic adjuvant activity against methicilin-resistant Staphylococcus aureus assessed as inhibition of bacterial growth incubated for 18 hrs in presence of rifampicin by two fold broth microdilution checkerboard assay; assay type: functional
Enterococcus faecium [31] = test: Antibiotic adjuvant activity against Enterococcus faecium 128149 assessed as fold potentiation incubated for 18 hrs in presence of rifampicin by two fold broth microdilution checkerboard assay; assay type: functional
Escherichia coli [32] = test: Antibiotic adjuvant activity against Escherichia coli ATCC 25922 assessed as fold potentiation incubated for 18 hrs in presence of novobiocin by two fold broth microdilution checkerboard assay; assay type: functional
Cell membrane = test: Induction of outer membrane permeabilization in Escherichia coli ATCC 25922 assessed as increase fluorescence intensity by measuring NPN uptake factor by fluorescence based analysis; assay type: subcellular
Acinetobacter baumannii [33] = test: Antibiotic adjuvant activity against Acinetobacter baumannii ATCC 17978 assessed as fold potentiation incubated for 18 hrs in presence of rifampicin and FBS media by two fold broth microdilution checkerboard assay; assay type: functional
Escherichia coli [34] = test: Antibiotic adjuvant activity against Escherichia coli ATCC 25922 assessed as novobiocin MIC incubated for 18 hrs in presence of novobiocin by two fold broth microdilution checkerboard assay; assay type: functional
Acinetobacter baumannii [35] = test: Antibiotic adjuvant activity against Acinetobacter baumannii ATCC 17978 assessed as minocycline MIC incubated for 18 hrs in presence of minocycline by two fold broth microdilution checkerboard assay; assay type: functional

How did the MIC (Escherichia coli [1]) turn out when Cl.NC[C@H]1O[C@H](O[C@H]2[C@H](OCc3ccccc3)[C@@H](O[C@H]3O[C@H](COCc4ccccc4)[C@@H](OCc4ccccc4)[C@H](N)[C@H]3OCc3ccccc3)[C@H](N)C[C@@H]2N)[C@H](N)C[C@@H]1OCc1ccccc1 was run?
Its MIC is 32 µg/mL.

What about the MIC (Pseudomonas aeruginosa [2]) of the same compound?
The MIC was 128 µg/mL.

What about the MIC (Escherichia coli [3]) of the same compound?
Its MIC is 32 µg/mL.

What about the MIC (Acinetobacter baumannii [4]) of the same compound?
Its MIC is 32 µg/mL.

What about the MIC (Pseudomonas aeruginosa [5]) of the same compound?
Its MIC is 0.004 µg/mL.

And the MIC (Escherichia coli [6])?
Its MIC is 0.125 µg/mL.

And the MIC (Acinetobacter baumannii [7])?
The MIC was 0.004 µg/mL.

And the MIC (Acinetobacter baumannii [8])?
The MIC was 0.008 µg/mL.

And the MIC (Acinetobacter baumannii [9])?
Its MIC is 0.002 µg/mL.

And the MIC (Acinetobacter baumannii [10])?
Its MIC is 8 µg/mL.

What about the “fold change (FC)” value (Pseudomonas aeruginosa [11]) of the same compound?
Its value is 1.

What about the “fractional inhibitory concentration index (FICI)” value (Pseudomonas aeruginosa [12]) of the same compound?
Its value is 0.126.

And the “fractional inhibitory concentration index (FICI)” value (Pseudomonas aeruginosa [13])?
Its value is 1.063.

And the “fractional inhibitory concentration index (FICI)” value (Acinetobacter baumannii [14])?
The value was 0.251.

What about the “fractional inhibitory concentration index (FICI)” value (Acinetobacter baumannii [15]) of the same compound?
The value was 0.126.

And the MIC (Pseudomonas aeruginosa [16])?
Its MIC is 128 µg/mL.

What about the MIC (Pseudomonas aeruginosa [17]) of the same compound?
The MIC was 128 µg/mL.

What about the MIC (Pseudomonas aeruginosa [18]) of the same compound?
Its MIC is 8 µg/mL.

And the MIC (Pseudomonas aeruginosa [19])?
The MIC was 8 µg/mL.

What about the MIC (Pseudomonas aeruginosa [20]) of the same compound?
The MIC was 8 µg/mL.

What about the “fold change (FC)” value (Pseudomonas aeruginosa [21]) of the same compound?
Its value is 1.

And the “fractional inhibitory concentration index (FICI)” value (Pseudomonas aeruginosa [22])?
Its value is 1.063.

And the “fractional inhibitory concentration index (FICI)” value (Escherichia coli [23])?
Its value is 0.078.

What about the MIC (Pseudomonas aeruginosa [24]) of the same compound?
Its MIC is greater than 128 µg/mL.

What about the MIC (Escherichia coli [25]) of the same compound?
Its MIC is 8 µg/mL.

And the “fold change (FC)” value (Pseudomonas aeruginosa [26])?
Its value is 1.

And the “fold change (FC)” value (Pseudomonas aeruginosa [27])?
The value was 1.

And the MIC (Staphylococcus aureus [28])?
Its MIC is 256 µg/mL.

And the MIC (Enterococcus faecium [29])?
The MIC was 8 µg/mL.

And the MIC (Staphylococcus aureus [30])?
The MIC was 4 µg/mL.

What about the “fold change (FC)” value (Enterococcus faecium [31]) of the same compound?
Its value is 1.

And the fold change (FC) (Escherichia coli [32])?
Its fold change (FC) is 2048.

What about the Activity (Cell membrane) of the same compound?
The Activity was “Dose-Dependent Effect”.

And the “fold change (FC)” value (Acinetobacter baumannii [33])?
The value was 4.

What about the MIC (Escherichia coli [34]) of the same compound?
Its MIC is 0.125 µg/mL.

What about the MIC (Acinetobacter baumannii [35]) of the same compound?
The MIC was no more than 4 µg/mL.
